The test system of series [1] is NTox released by Aβ1-42-stimulated microglia (neuron killing). Description: cells. The note with it: for neuroprotective activity (structure/function): Example 14. The series is classed as cell-based, rat. From the text: . Briefly, hippocampal cells obtained from embryonic stage 18 rat fetuses were dispersed mechanically in the presence of 0.125% trypsin and plated onto poly-L-lysine coated glass coverslips in 24 well plates at 250,000 cells per well (resulting in adhering cell densities of about 1250 cells per mm^2) in chemically-defined N2 culture media containing 5% fetal bovine serum. Gradual reduction of serum began on day 10 in vitro with daily 1:1 volume replacements with chemically-defined media, until a final concentration of 0.6% serum was achieved. […]; see FIG. 18). In order to eliminate microglia, cultures were exposed to saporin (sap; a ribosome-inactivating protein; Davis and Wiley, 1989) coupled to acetylated LDL (ac-LDL) at a concentration of 10 μg/ml for 12 hours. […] Cultures depleted of microglia were then exposed to test substances in the presence or absence of exogenous microglia (100,000 cells per culture). […]. Controls included cultures without saporin-treatment, cultures without test substances, and cultures with test substances but lacking microglia.
(§1) On day 14 of culture, immediately following saporin treatment, test substances were added to the hippocampal cultures. Synthetic peptide were supplied as 1 mM stock solutions in 0.1 M phosphate buffered saline, pH 7.2, stored for at least 1 week at 4° C. before use. After 72 hours incubation, the cultures were fixed in 4% paraformaldehyde at room temperature for 18 hours and immuno-stained by overnight incubation with a mixture of anti-neurofilament antibodies (NF; SMI-311, 1:600; Stemberger Monoclonals, Inc.) plus anti-MAP-2 (Boehringer Mannheim, 184959; 1:600) at 4° C. in the presence of 2% horse serum and 0.3% triton X-100 to delineate both neuronal cell bodies and neurites. Astroglia were visualized using sheep anti-glial fibrillary acidic protein (GFAP, Sigma) as described by Giulian et al., 1989. Finally, to label all cell nuclei, the coverslips were exposed to 0.01% bisbenzimide (Hoechst 33258; Sigma) in PBS, pH 6.9, and rinsed in distilled water and mounted in glycerin. Immuno-labeled cells per field and nuclei per field were scored at 200X magnification using fluorescence microscopy. Data were expressed as % mean survival expressed in terms of parallel untreated control cultures after scoring at least 20 randomly selected fields for each of 3 coverslips.
The procedures described above and by Giulian et al, 1996, provided for the identification of tyramine compounds as therapeutic agents for neurodegenerative diseases or disorders including, for example, Alzheimer's disease. Cells from the brain of fetal rats were grown in tissue cultures. Microglial populations within the cultures were controlled following the method described in Example 5 above. Known amounts of Aβ peptides coupled to microspheres were added to the culture. The Aβ spheres stimulated the microglia to release NTox, which in turn destroyed the neurons. The neurons in the cultures were monitored for survival by immuno-staining.
Generally, drug assays involve the addition of known concentrations of a test agent over a range of concentrations. After 72 hours, the experiment is stopped and the neurons are identified by immuno-staining. The data is expressed as % neuronal survival […]. Dose response curves are then used to estimate Effective Dose50 % (ED50) of neuroprotective agents. […].
In this experiment, about 65% of the neurons were destroyed by the Aβ-stimulated microglia. […] Other tyramine compounds, including tyrosine esters, were neuroprotective (FIG. 30).
Following the methods described herein, numerous compounds were examined to determine their neuroprotective activity. […]

The next series deals with NMDA receptor. Put plainly: whole cell current elicited by NMDA in Xenopus oocytes injected with NMDA R1 and R2 subunit cRNAs. The series is classed as cell-based. The note with it: for effect on current elicited by NMDA: FIG. 34. An excerpt:
FIG. 34 is a graph shorting the % maximal current peak elicited by NMDA, octopamine and tyramine compounds in the presence of a given NMDA concentration. […].
The precise mechanism of NTox that leads to the destruction of neurons is only partially characterized. Based upon extensive testing with receptor antagonists, it has been discovered that two classes of neurotransmitter receptors are involved--the n-methyl D-aspartate (NMDA) class of […] receptors and the Muscarinic (M receptors) class of cholinergic receptors. […] […]. Further study to determine if tyramine compounds act upon the NMDA receptor itself involved expression of the NMDA receptor complex in Xenopus oocytes and measurement of ionic fluxes across the oocyte membrane that are elicited by NMDA. […] […]. […] Thus, tyramine compounds appear to have several actions, one of which is upon the NMDA receptor.

The next series concerns rat microglia. Put plainly: binding of Aβ-coupled microspheres to microglia. Particulars: 4 hours at 37° C. (72 h in FIG. 23).
Another series concerns microglia. Put plainly: inhibition of SpheresAβ1-42 binding to microglia. Set-up: species or system rat. Particulars: 10 μmoles/l, 4 hours, 37° C. The procedure:
Spheresmal-BSA (which bind to scavenger receptors) or SpheresAβ1-42 were incubated with microglia for 4 hours following pre-treatment of cells with trypsin (5000 units/ml at 37° C. for 60 min followed by inactivation with soybean trypsin inhibitor), with heparinase (heparin lyase EC 4.2.2.7; two consecutive treatments each of 0.01 units/ml for 60 min), or with chondroitinase ABC (chondroitin ABC lyase EC 4.3.3.4; two consecutive treatments each of 0.02 units/ml for 60 min). […] Microglia mixed with hippocampal neurons were treated with combinations of β-D-xyloside (1 mm), heparinase (0.02 units/ml), or chondroitinase (0.04 units/ml) and then exposed to plaques.
Each well then received 250,000 SpheresAβ1-42 or Spheresmal-BSA in the presence or absence of Aβ peptides, GAGs, or scavenger receptor ligands. Binding assays were carried out at 37° C. for 4 hours after which coverslips were dipped 10 times in phosphate buffer and fixed with 4% buffered paraformaldehyde. Microsphere adherence to cells was scored at 200 magnification with phase/fluorescence microscopy. Data, expressed as % inhibition of sphere binding, was calculated from total number of spheres per field noted for control cultures receiving spheres only. Values are based upon at least 3 coverslips from 2 independent experiments. […] Washed spheres were resuspended in 0.2 M borate buffer (pH 8.5) in the presence of 300 μg Aβ or 400 μg BSA in 6% DMSO. After overnight mixing at room temperature, the spheres were washed extensively and blocked by 1 M glycine (pH 8.0) for 30 minutes.

The subject of series [2] is Aβ1-42-stimulated microglia. The format is cell-based, rat.
From the text: Briefly, hippocampal cells obtained from embryonic stage 18 rat fetuses were dispersed mechanically in the presence of 0.125% trypsin and plated onto poly-L-lysine coated glass coverslips in 24 well plates at 250,000 cells per well (resulting in adhering cell densities of about 1250 cells per mm^2) in chemically-defined N2 culture media containing 5% fetal bovine serum. Gradual reduction of serum began on day 10 in vitro with daily 1:1 volume replacements with chemically-defined media, until a final concentration of 0.6% serum was achieved. […] In order to eliminate microglia, cultures were exposed to saporin (sap; a ribosome-inactivating protein; Davis and Wiley, 1989) coupled to acetylated LDL (ac-LDL) at a concentration of 10 μg/ml for 12 hours. […] Cultures depleted of microglia were then exposed to test substances in the presence or absence of exogenous microglia (100,000 cells per culture). […] Controls included cultures without saporin-treatment, cultures without test substances, and cultures with test substances but lacking microglia.
as §1

In series [3] the test system is human microglia stimulated with S5. The series is classed as cell-based.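 Further: drugs applied at 10 µM.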
For the next series, the system named is human microglia. Description: induction of neuron-killing human microglia. The series is classed as cell-based. Particulars: 1 μmole/liter synthetic peptides.
Series [4] deals with rat microglia / hippocampal neurons. The note with it: rat microglia, mostly 1 μmole/l.
For a further series, the system named is NTox. Put plainly: protection of neurons against isolated NTox applied directly. Particulars: isolated NTox; FIGS. 13, 32. The series is classed as cell-based. From the text: FIG. 32 is a graph showing the specificity of tyramine compounds to NTox. […].
Initial studies to characterize the neuroprotective effect of tyramine compounds employed microglia-neuron co-culture assays in the presence of Aβ or isolated senile plaques. Inhibition of neuron killing in […]--inhibition of microglial activation by Aβ or plaques; inhibition of NTox production and release by microglia; or inhibition of action of NTox upon neurons. […] Effective doses in the low nmolar range show the tyramine compounds to be very potent agents compared with low μmolar range of other neuroprotective drugs under development for neurological disorders.

Series [5] is classed as physicochemical. The note with it: chemically defined culture media, 37° C.; Table 2. An excerpt: Solubility of peptides is described for chemicallydefined culture media a […]

“Also recorded” adds a separate entry of the source. Counter-ions that a name gives are not always drawn. Like-named read-outs stand apart in the source and are kept apart here.

For the compound `NCC(O)c1ccc(O)cc1` (centres unmarked) [octopamine], in series [1], the “neuroprotective activity (structure/function)” value is “little or no neuroprotective activity”. Also, the entries for the “effect on current elicited by NMDA” value with NMDA receptor and in the series with NMDA receptor (listed as Octopamine) were “does not alter the current measured” and “no effect”, respectively.
With “Aβ36-42: Aβ peptide residues 36-42 (VGGVVIA; Amyloid-beta protein 42; UniProt P05067 707-713, looked up, fragment)”, the “binding of peptide-coupled microspheres to microglia” value (“binding … to microglia” for short) in the series with rat microglia was “little cell binding”. The “inhibition of SpheresAβ1-42 binding by peptides” value with microglia is reported as “did not”. In addition, the “blocking of Aβ1-42 induced microglial neurotoxicity by peptides” value in series [2] (10 μmoles/liter peptide, 1 μmole/liter Aβ1-42) was “did not”.
Consider `N[C@@H](Cc1ccc(O)cc1)C(=O)OCc1ccccc1` [tyrosine benzyl ester], for which, in series [1], the “neuroprotective activity (structure/function)” value is on record as “enhance neuroprotective effects”. Moreover, the “effect on current elicited by NMDA” value with NMDA receptor is “inhibition of NMDA”.
Consider catalase, for which, in series [2], the “drug blockade of neuron killing, rat microglia” value (shortened to “drug blockade … rat microglia”) is “no reduction of microglia-mediated neuron killing; also recorded: did not block microglial killing of neurons”. In series [3], the “drug blockade of neuron killing, human microglia” value (shortened to “drug blockade … human microglia”) is listed as “no reduction of microglia-mediated neuron killing; also recorded: did not block microglial killing of neurons”.
Turning to `CC(C(O)c1ccc(O)cc1)N1CCC(Cc2ccccc2)CC1` (centres unmarked) [ifenprodil], the “drug blockade … rat microglia” value in series [2] is on record as “prevented neuronal loss; also recorded: blocked neuron death”. Moreover, the “drug blockade … human microglia” value in series [3] is on record as “blocked neuron death”.
Consider “rodent Aβ1-40: rodent Aβ1-40 (5Arg-Gly, 10Tyr-Phe, 13His-Arg) (DAEFGHDSGFEVRHQKLVFFAEDVGSNKGAIIGLMVGGVV; Amyloid-beta protein 40; UniProt P12023 672-711, looked up)”, for which the “induction of neurotoxic human microglia” value with human microglia was “inactive”. In addition, the “binding … to microglia” value in the series with rat microglia was “little cell binding”. For the same compound, the “inhibition of SpheresAβ1-42 binding by peptides” value in the series on microglia was “unable to block”. The “induction of neurotoxic microglia / neuron killing” value was “did not activate microglia” in series [4], “neither” in series [4] (listed as Aβ1-40rodent), “did not activate microglia” in [4] (listed as Rodent Aβ1-40) and “inactive” in series [4] (listed as rodent form of Aβ1-40).
As for `CC(C)(C)OC(=O)[C@@H](N)Cc1ccc(O)cc1` [tyrosine t-butyl ester], the neuroprotective effect entry in [1] (Aβ1-42-stimulated microglia) was “most potent neuroprotectant tested”. Besides, the “neuroprotective activity (structure/function)” value in [1] is “enhance neuroprotective effects”. In series [1] (Rattus norvegicus, Aβ-stimulated microglia, 72 h, FIG. 31, read-out: ED50 (neuroprotection)), the EC50 amounted to 2 nM. Besides, the “inhibition of killing action of NTox applied to neurons” value in the series on NTox was “killing action of NTox is inhibited”. In the series on NMDA receptor (300 μM), the “effect on NMDA-stimulated voltage change across oocyte membrane” value is reported as “blocked”. Also, the “effect on current elicited by NMDA” value in the series with NMDA receptor is “inhibition of NMDA”.
With `N[C@@H](CCC(=O)N[C@@H](CS)C(=O)NCC(=O)O)C(=O)O` [glutathione], the “drug blockade … rat microglia” value in [2] was “no reduction of microglia-mediated neuron killing; also recorded: did not block microglial killing of neurons”. The “drug blockade … human microglia” value in [3] is “no reduction of microglia-mediated neuron killing; also recorded: did not block microglial killing of neurons”.
As for vitamin E, the “drug blockade … rat microglia” value in [2] was “no reduction of microglia-mediated neuron killing; also recorded: did not block microglial killing of neurons”. In addition, the “drug blockade … human microglia” value in series [3] is on record as “no reduction of microglia-mediated neuron killing; also recorded: did not block microglial killing of neurons”.
On to “Aβ17-42: Aβ peptide residues 17-42 (LVFFAEDVGSNKGAIIGLMVGGVVIA; Amyloid-beta protein 42; UniProt P05067 688-713, looked up, fragment)”, for which the “binding … to microglia” value with rat microglia is listed as “neither binds to microglia nor elicits toxicity”. In series [5], the Solubility result is on record as “very insoluble”.
Take `CC(=N)NCCC[C@H](N)C(=O)O` [L-NIO, L-N-5-(1-imino-ethyl)-ornithine hydrochloride]: the “drug blockade … rat microglia” value in [2] (hydrochloride) is “no reduction of microglia-mediated neuron killing; also recorded: No protective effects were observed”. In addition, the “drug blockade … human microglia” value in series [3] (hydrochloride) is recorded as “no reduction of microglia-mediated neuron killing; also recorded: No protective effects were observed”.
Consider `NC(CCCCCP(=O)(O)O)C(=O)O` (centres unmarked) [AP7], for which the “drug blockade … rat microglia” value in series [2] was “prevented neuronal loss; also recorded: blocked neuron death”. Further, the “drug blockade … human microglia” value in [3] is “blocked neuron death”.

The values above are taken from US6043283A, “Tyramine compounds and their neuronal effects” (priority 1997, dated 2000).
